Biological target: EGFR (UniProt P00533)
Sequence (P00533 whole entry, looked up): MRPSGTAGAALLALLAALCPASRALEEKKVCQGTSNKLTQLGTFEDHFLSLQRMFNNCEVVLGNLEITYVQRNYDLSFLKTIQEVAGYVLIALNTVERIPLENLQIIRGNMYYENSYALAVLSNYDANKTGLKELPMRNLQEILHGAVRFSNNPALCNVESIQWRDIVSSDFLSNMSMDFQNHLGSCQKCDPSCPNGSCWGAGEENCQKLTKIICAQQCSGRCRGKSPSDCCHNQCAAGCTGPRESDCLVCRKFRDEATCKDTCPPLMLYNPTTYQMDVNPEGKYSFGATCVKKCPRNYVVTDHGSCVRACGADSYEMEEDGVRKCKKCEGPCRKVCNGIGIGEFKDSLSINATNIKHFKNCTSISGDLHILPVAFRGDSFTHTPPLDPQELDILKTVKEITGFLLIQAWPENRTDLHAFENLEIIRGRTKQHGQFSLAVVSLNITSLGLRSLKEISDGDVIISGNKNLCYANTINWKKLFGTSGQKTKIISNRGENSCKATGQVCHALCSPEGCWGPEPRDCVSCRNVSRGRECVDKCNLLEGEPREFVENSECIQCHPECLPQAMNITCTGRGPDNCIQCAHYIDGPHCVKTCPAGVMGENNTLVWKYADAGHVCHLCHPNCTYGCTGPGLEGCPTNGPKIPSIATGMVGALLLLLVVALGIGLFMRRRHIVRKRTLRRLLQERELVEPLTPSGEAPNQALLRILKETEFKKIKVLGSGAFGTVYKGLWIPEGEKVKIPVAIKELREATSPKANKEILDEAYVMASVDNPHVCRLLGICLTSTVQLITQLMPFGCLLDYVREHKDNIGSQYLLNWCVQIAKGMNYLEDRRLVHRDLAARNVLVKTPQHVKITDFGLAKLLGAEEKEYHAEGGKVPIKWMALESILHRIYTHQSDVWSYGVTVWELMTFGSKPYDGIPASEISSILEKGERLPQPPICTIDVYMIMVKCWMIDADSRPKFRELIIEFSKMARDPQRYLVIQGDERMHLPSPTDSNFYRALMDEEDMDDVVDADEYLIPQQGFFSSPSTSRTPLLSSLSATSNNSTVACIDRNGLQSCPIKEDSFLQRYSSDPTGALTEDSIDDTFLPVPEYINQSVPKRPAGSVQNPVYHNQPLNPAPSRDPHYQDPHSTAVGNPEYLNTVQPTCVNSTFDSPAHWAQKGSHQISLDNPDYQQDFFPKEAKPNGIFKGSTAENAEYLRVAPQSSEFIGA

| Structure (SMILES) | IC50 [µM] |
| --- | --- |
| COc1cc2c(Nc3ccc(F)c(Cl)c3F)ncnc2cc1O[C@H]1CO[C@H]2[C@@H]1OC[C@@H]2OC | < 0.05 |
| COc1cc2c(Nc3cccc(Cl)c3C)ncnc2cc1O[C@@H]1CO[C@@H]2[C@H]1OC[C@H]2F | < 0.05 |
| COc1cc2c(Nc3ccc(F)c(Cl)c3F)ncnc2cc1OC[C@H]1C[C@@H]2CN(C)C[C@@H]2C1 | < 0.05 |
| COc1cc2c(Nc3cc(Cl)c(Br)cc3F)ncnc2cc1OC[C@H]1CN2CCOC[C@H]2CO1 | < 0.05 |
| COc1cc2c(Nc3ccc(Cl)c(Cl)c3)ncnc2cc1OCC1CN(CC2CC2)CCO1 (stereo not given) | < 0.05 |
| COc1cc2c(Nc3ccc(F)cc3Br)ncnc2cc1O[C@@H]1CO[C@@H]2[C@H]1OC[C@H]2F | < 0.05 |
| COc1cc2c(Nc3ccc(Cl)c(Cl)c3)ncnc2cc1OCCC1CN(C(=O)OC(C)(C)C)C(C)(C)CO1 (stereo not given) | < 0.05 |
| COc1cc2c(Nc3ccc(Br)cc3F)ncnc2cc1O[C@@H]1CO[C@@H]2[C@H]1OC[C@H]2F | < 0.05 |
| COC[C@@]1(OC)CO[C@@H]2[C@H]1OC[C@H]2Oc1cc2ncnc(Nc3ccc(Br)c(Cl)c3)c2cc1OC | < 0.05 |
| COc1cc2c(Nc3ccc(Br)cc3C)ncnc2cc1OCC1CN(C)CCO1 (stereo not given) | < 0.05 |
| COc1cc2c(Nc3ccc(F)c(Cl)c3F)ncnc2cc1O[C@@H]1CO[C@@H]2[C@H]1OC[C@H]2F | < 0.05 |
| COc1cc2c(Nc3ccc(Cl)c(Cl)c3)ncnc2cc1OCC1CN(CC2CCCCC2)CCCO1 (stereo not given) | < 0.05 |
| COc1cc2c(Nc3ccc(Cl)c(Cl)c3)ncnc2cc1OCC1CN2CCOCC2CO1 (stereo not given) | < 0.05 |
| COc1cc2c(Nc3ccc(Cl)c(Cl)c3)ncnc2cc1OCc1csc([C@@H]2CSCN2)n1 | < 0.05 |
| COc1cc2c(Nc3ccc(Cl)c(Cl)c3)ncnc2cc1OCc1csc(N(C)C)n1 | < 0.05 |
| COc1cc2c(Nc3ccc(Br)c(Cl)c3C)ncnc2cc1OCC1CN(C)CCO1 (stereo not given) | < 0.05 |
| C=CCCCCN1CCOC(COc2cc3ncnc(Nc4ccc(Cl)c(Cl)c4)c3cc2OC)C1 (stereo not given) | < 0.05 |
| COc1cc2c(Nc3ccc(Cl)c(Cl)c3)ncnc2cc1OCC1CN(C(=O)c2cccc3ccccc23)CCO1 (stereo not given) | < 0.05 |
| COc1cc2c(Nc3ccc(F)cc3F)ncnc2cc1O[C@@H]1CO[C@@H]2[C@H]1OC[C@H]2F | < 0.05 |
| COc1cc2c(Nc3ccc(Cl)c(Cl)c3)ncnc2cc1OCC1CC2CCC(C1)N2C (stereo not given) | < 0.05 |
| COc1cc2c(Nc3ccc(Cl)c(Cl)c3)ncnc2cc1OCC1CN(C2CCCC2)CCO1 (stereo not given) | < 0.05 |

| Structure (SMILES) | IC50 [µM] |
| --- | --- |
| COc1cc2c(Nc3cccc(C(F)(F)F)c3F)ncnc2cc1O[C@@H]1CO[C@@H]2[C@H]1OC[C@H]2F | < 0.05 |
| CCOc1cc2c(Nc3ccc(Cl)c(Cl)c3)ncnc2cc1OCC1CN(C)CCO1 (stereo not given) | < 0.05 |
| COc1cc2c(Nc3cc(Cl)ccc3F)ncnc2cc1OCC1CN(C)CCO1 (stereo not given) | < 0.05 |
| COc1cc2c(Nc3cc(Cl)c(Cl)c(Cl)c3)ncnc2cc1OCC1CN(C)CCO1 (stereo not given) | < 0.05 |
| COc1cc2c(Nc3ccc(C(F)(F)F)cc3Br)ncnc2cc1O[C@@H]1CO[C@@H]2[C@H]1OC[C@H]2F | < 0.05 |
| COc1cc2c(Nc3ccc(Cl)c(Cl)c3)ncnc2cc1OCC1CCCO1 (stereo not given) | < 0.05 |
| CCC(CC)CN1CCCOC(COc2cc3ncnc(Nc4ccc(Cl)c(Cl)c4)c3cc2OC)C1 (stereo not given) | < 0.05 |
| CNC(=NC#N)N1CCOC(COc2cc3ncnc(Nc4ccc(Cl)c(Cl)c4)c3cc2OC)C1 (stereo not given) | < 0.05 |
| CCCN1CCOC(COc2cc3ncnc(Nc4ccc(Cl)c(Cl)c4)c3cc2OC)C1 (stereo not given) | < 0.05 |
| CCN1CCC(c2nc(COc3cc4ncnc(Nc5ccc(Cl)c(Cl)c5)c4cc3OC)no2)CC1 | < 0.05 |
| COc1cc2c(Nc3ccc(Cl)c(Cl)c3)ncnc2cc1OCC1CN(C(C)C(C)=O)CCO1 (stereo not given) | < 0.05 |
| COc1cc2c(Nc3ccc(Cl)c(Cl)c3F)ncnc2cc1OC[C@@H]1CN2CCC[C@H]2C(=O)N1C | < 0.05 |
| COc1cc2c(Nc3ccc(Cl)c(Cl)c3)ncnc2cc1OCC1CN(C)C(C)(C)CO1 (stereo not given) | < 0.05 |
| COc1ccc(OC)c(Nc2ncnc3cc(O[C@@H]4CO[C@@H]5[C@H]4OC[C@H]5F)c(OC)cc23)c1 | < 0.05 |
| COc1cc2c(Nc3ccc(Cl)c(Cl)c3)ncnc2cc1OC1CC2CCC(C1)N2C (stereo not given) | < 0.05 |
| COc1cc2c(Nc3ccc(Cl)cc3Cl)ncnc2cc1OCC1CN(C)CCO1 (stereo not given) | < 0.05 |
| COc1cc2c(Nc3ccc(Br)c(Cl)c3)ncnc2cc1O[C@H]1CO[C@@H]2[C@H]1OC[C@@H]2N | < 0.05 |
| COc1cc2c(Nc3ccc(F)c(Cl)c3F)ncnc2cc1OCC1CO[C@@H]2[C@@H](OC)CO[C@H]12 (stereo not given in full) | < 0.05 |
| COc1cc2c(Nc3cc(Cl)ccc3Cl)ncnc2cc1O[C@@H]1CO[C@@H]2[C@H]1OC[C@H]2F | < 0.05 |
| COc1cc2c(Nc3ccc(Cl)c(Cl)c3Cl)ncnc2cc1O[C@H]1CO[C@H]2[C@@H]1OC[C@@H]2OC | < 0.05 |
| COc1cc2c(Nc3cc(Cl)c(Cl)cc3F)ncnc2cc1O[C@@H]1CO[C@@H]2[C@H]1OC[C@H]2F | < 0.05 |

The next lines start with the values.

| IC50 [µM] | Structure (SMILES) |
| --- | --- |
| < 0.05 | COc1cc2c(Nc3cc(Cl)c(Br)cc3F)ncnc2cc1OCC1CO[C@@H]2[C@@H](OC)CO[C@H]12 (stereo not given in full) |
| < 0.05 | COc1cc2c(Nc3ccc(Cl)c(Cl)c3)ncnc2cc1OCc1nc2c(s1)CNCC2 |
| < 0.05 | C=CCCCN1CCOC(COc2cc3ncnc(Nc4ccc(Cl)c(Cl)c4)c3cc2OC)C1 (stereo not given) |
| < 0.05 | COc1cc2c(Nc3ccc(Cl)c(Cl)c3)ncnc2cc1OCCC1CNC(C)(C)CO1 (stereo not given) |
| < 0.05 | COc1cc2c(Nc3ccc(Br)c(Cl)c3)ncnc2cc1O[C@H]1CO[C@@H]2[C@H]1OC[C@@H]2S(C)(=O)=O |
| < 0.05 | COc1cc2c(Nc3ccc(Cl)c(Cl)c3)ncnc2cc1OCC1CN(C(N)=NC#N)CCCO1 (stereo not given) |
| < 0.05 | COc1cc2c(Nc3ccc(Cl)c(Cl)c3)ncnc2cc1OCC1CNCC(C)(C)O1 (stereo not given) |
| < 0.05 | COc1cc2c(Nc3ccc(Cl)c(Cl)c3F)ncnc2cc1OCC1CN(C)C(C)(C)CO1 (stereo not given) |
| < 0.05 | COc1cc2c(Nc3ccc(Br)c(Cl)c3)ncnc2cc1O[C@H]1CO[C@@H]2[C@H]1OC[C@@H]2SC |
| < 0.05 | COc1cc2c(Nc3ccc(Br)c(Cl)c3)ncnc2cc1O[C@H]1CO[C@@H]2[C@H]1OC[C@@H]2OC(C)=O |
| < 0.05 | COc1cc2c(Nc3ccc(Cl)c(Cl)c3)ncnc2cc1O[C@@H]1CO[C@@H]2[C@H]1OC[C@H]2F |
| < 0.05 | COc1cc2c(Nc3ccc(Cl)c(Cl)c3)ncnc2cc1OCc1csc([C@@H]2CCCN2)n1 |
| < 0.05 | CCC1(C)CN(C)CC(COc2cc3ncnc(Nc4ccc(Cl)c(Cl)c4)c3cc2OC)O1 (stereo not given) |
| < 0.05 | COc1cc2c(Nc3ccc(Cl)c(Cl)c3F)ncnc2cc1OC[C@@H]1CN2CCCC[C@@H]2C(=O)N1 |
| < 0.05 | COc1cc2c(Nc3ccc(Cl)c(Cl)c3)ncnc2cc1OCc1csc(C2CCNCC2)n1 |
| < 0.05 | COc1cc2c(Nc3ccc(Cl)c(Cl)c3)ncnc2cc1OC[C@@H]1CN2CCC[C@@H]2CO1 |
| < 0.05 | COc1cc2c(Nc3ccc(Cl)c(Cl)c3)ncnc2cc1OCc1nc(N2CCN(C)CC2)no1 |
| < 0.05 | COc1cc2c(Nc3ccc(Cl)c(Cl)c3)ncnc2cc1OCC1CN(C(C)=N)CCCO1 (stereo not given) |
| < 0.05 | COc1cc2c(Nc3ccc(Br)c(Cl)c3Cl)ncnc2cc1OCC1CN(C)CCO1 (stereo not given) |
| < 0.05 | COc1cc2c(Nc3ccc(Cl)c(Cl)c3)ncnc2cc1OCC1CN(C)CCN1C (stereo not given) |
| < 0.05 | COc1cc2c(Nc3cc(Cl)c(Br)cc3F)ncnc2cc1OC[C@H]1C[C@@H]2CN(C)C[C@@H]2C1 |
| < 0.05 | CCC(=O)CN1CCOC(COc2cc3ncnc(Nc4ccc(Cl)c(Cl)c4)c3cc2OC)C1 (stereo not given) |
| < 0.05 | CCN(CC)c1ccc(-c2csc(COc3cc4ncnc(Nc5ccc(Cl)c(Cl)c5)c4cc3OC)n2)cc1 |
| < 0.05 | COc1cc2c(Nc3ccc(Cl)c(Cl)c3)ncnc2cc1OCCC1CCCN1C (stereo not given) |

| IC50 [µM] | Structure (SMILES) |
| --- | --- |
| < 0.05 | COc1cc2c(Nc3ccc(Cl)c(Cl)c3)ncnc2cc1OCC1CN(CC=C(C)C)CCO1 (stereo not given) |
| < 0.05 | COc1cc2c(Nc3ccc(Cl)c(Cl)c3)ncnc2cc1OCC1CN(C(=O)c2c(C)noc2C)CCO1 (stereo not given) |
| < 0.05 | CCNC(=NC#N)N1CCOC(COc2cc3ncnc(Nc4ccc(Cl)c(Cl)c4)c3cc2OC)C1 (stereo not given) |
| < 0.05 | COc1cc2c(Nc3ccc(Cl)c(Cl)c3)ncnc2cc1OCCC1CN(C)C(C)(C)CO1 (stereo not given) |
| < 0.05 | COc1cc2c(Nc3cc(F)c(Br)cc3F)ncnc2cc1OCC1CN(C)CCO1 (stereo not given) |
| < 0.05 | COc1cc2c(Nc3ccc(Cl)c(Cl)c3)ncnc2cc1OCc1noc(-c2c(C)noc2C)n1 |
| < 0.05 | COc1cc2c(Nc3ccc(Cl)c(Cl)c3)ncnc2cc1OCC1CN(C(=O)c2cccnc2Cl)CCO1 (stereo not given) |
| < 0.05 | COc1cc2c(Nc3ccc(Br)c(Cl)c3)ncnc2cc1O[C@H]1CO[C@@H]2[C@H]1OC[C@@H]2N1CCOCC1 |
| < 0.05 | COc1cc2c(Nc3cc(Cl)c(Cl)cc3F)ncnc2cc1OC[C@@H]1CN2CCOC[C@H]2CO1 |
| < 0.05 | COc1cc2c(Nc3cc(C(F)(F)F)ccc3Cl)ncnc2cc1O[C@@H]1CO[C@@H]2[C@H]1OC[C@H]2F |
| < 0.05 | COc1cc2c(Nc3ccc(Br)c(Cl)c3)ncnc2cc1O[C@H]1CO[C@@H]2[C@H]1OC[C@@H]2NS(C)(=O)=O |
| < 0.05 | COc1cc2c(Nc3ccc(F)c(F)c3)ncnc2cc1O[C@@H]1CO[C@@H]2[C@H]1OC[C@H]2F |
| < 0.05 | COc1cc2c(Nc3ccc(Cl)c(Cl)c3)ncnc2cc1OCC1CN(C(=O)c2c(F)ccc(F)c2F)CCO1 (stereo not given) |
| < 0.05 | COc1cc2c(Nc3ccc(Cl)c(Cl)c3)ncnc2cc1OCC1CN(S(=O)(=O)c2ccccc2)CCO1 (stereo not given) |
| < 0.05 | COc1cc2c(Nc3ccc(Br)c(Cl)c3)ncnc2cc1O[C@@H]1CO[C@@H]2[C@H]1OC[C@@H]2OS(C)(=O)=O |
| < 0.05 | COc1cc2c(Nc3ccc(Cl)c(Cl)c3)ncnc2cc1OC[C@H]1CN2CCC[C@@H]2CO1 |
| < 0.05 | CCN1CCCOC(COc2cc3ncnc(Nc4ccc(Cl)c(Cl)c4)c3cc2OC)C1 (stereo not given) |
| < 0.05 | COc1cc2c(Nc3ccc(Br)c(Cl)c3)ncnc2cc1O[C@H]1CO[C@@H]2[C@H]1OC[C@@H]2N1CCCCC1 |
| < 0.05 | COc1cc2c(Nc3ccc(Cl)c(Cl)c3)ncnc2cc1OCC1CN(CCO)CCO1 (stereo not given) |
| < 0.05 | COc1cc2c(Nc3ccc(Cl)c(Cl)c3)ncnc2cc1OCc1csc(C2CCCNC2)n1 (stereo not given) |
| < 0.05 | COc1cc2c(Nc3ccc(Cl)c(Cl)c3)ncnc2cc1OCc1nc2c(s1)CN(C)CC2 |
| < 0.05 | COc1cc2c(Nc3ccc(Cl)c(Cl)c3)ncnc2cc1OCC1CN(S(C)(=O)=O)CCO1 (stereo not given) |
| < 0.05 | COc1cc2c(Nc3ccc(Cl)cc3F)ncnc2cc1O[C@@H]1CO[C@@H]2[C@H]1OC[C@H]2F |
| < 0.05 | COc1cc2c(Nc3ccc(Cl)c(Cl)c3)ncnc2cc1OCC1CN(C(C)=O)CCO1 (stereo not given) |

Reference: the Kinase Knowledgebase extract (Sharma et al. 2016)
